Experimental findings from publication PMC11858653, “Design, Synthesis and Bioactive Evaluation of Topo I/c-MYC Dual Inhibitors to Inhibit Oral Cancer via Regulating the PI3K/AKT/NF-κB Signaling Pathway” (Molecules, 2025) are described below.

Structures are written as SMILES.

As usually defined, the IC50 is the point on the concentration scale where inhibition reaches its midpoint. A high value points to weaker potency in that assay.

Assay [1] relates to Cal27. The assay is described as follows: MTT antiproliferative assay, Cal27. Format: cell-based, human. To be noted: mean ± SD. As to the method:
(§1) Having evaluated their Topo I inhibitory activity, the antiproliferative activity of the target compounds against some common human cancer cell lines (NCI-H460, A549, ACHN, Cal27 and MGC-803) and one normal cell line (SV-HUC-1) was tested via an MTT assay. TPT, the first Topo I inhibitor approved in clinics, and cisplatin (CDDP), a commonly selected anticancer drug for treating head and neck malignancies, were used as the positive controls.
(§2) Human oral cancer Cal27 cells were seeded in 96-well plates and incubated overnight in 180 μL of medium containing 10% Fetal Bovine Serum (Gibco, San Francisco, CA, USA). […] Then, 10 μL of 5 mg/mL MTT solution was added to each well and incubated at 37 °C for 4 h. After 4 h of incubation at 37 °C, the MTT-containing medium was removed and DMSO was added to each well and the absorbance at 570 nm and 630 nm was measured using a microplate reader (CYTATION 3, Burton, Westwood, NJ, USA). Survival/% = (mean OD of experimental group/mean OD of control group) × 100%. Each test was repeated at least three times.

Assay [2] deals with A549. The assay is described as follows: MTT antiproliferative assay, A549. Format: cell-based, human. Particulars: mean ± SD. The method, then:
as §1, §2
(Tetrazolium assays rely on reduction of a dye to a coloured formazan, in cell work by metabolically active cells.)

In assay [3] the test system is MGC-803. Put plainly: MTT antiproliferative assay, MGC-803. In kind it is cell-based, human. Particulars: mean ± SD. The method, then:
as §1, §2

Assay [4] has as its system NCI-H460. The assay is described as follows: MTT antiproliferative assay, NCI-H460. Format: cell-based, human. To be noted: mean ± SD. As to the method:
as §1, §2

Assay [5] has as its system ACHN. The assay is described as follows: MTT antiproliferative assay, ACHN. In kind it is cell-based, human. To be noted: 48 h, mean ± SD. The method, then: as §1, §2
The subject of assay [6] is SV-HUC-1. The assay is described as follows: MTT assay, normal cell line SV-HUC-1. To be noted: mean ± SD. In kind it is cell-based. As to the method:
as §1, §2

Consider `O=S1(=O)c2ncccc2-c2nc(N3CCCC3)c3ccccc3c21` [7al, 5-(Pyrrolidin-1-yl)pyrido[3′,2′:4,5]thieno[3,2-c]isoquinoline 11,11-dioxide], for which the IC50 is more than 100 µM in assay [1] (Homo sapiens, CAL-27, 48 h); more than 100 µM in assay [2] (Homo sapiens, A549, 48 h); more than 100 µM in assay [3] (Homo sapiens, MGC-803, 48 h); more than 100 µM in assay [4] (Homo sapiens, NCI-H460, 48 h); more than 100 µM in assay [5] (Homo sapiens, ACHN); more than 100 µM in assay [6] (SV-HUC1, 48 h).

For the compound `Cc1cc(-c2ccccc2)nc2c1-c1nc(NCCN3CCOCC3)c3ccccc3c1S2(=O)=O` [7cd, 7-Methyl-5-((2-morpholinoethyl)amino)-9-phenylpyrido[3′,2′:4,5]thieno[3,2-c]isoquinoline 11,11-dioxide], the IC50 in assay [1] (48 h) was more than 100 µM; in assay [2] (48 h), 78.9 ± 2.86 µM; in assay [3] (48 h), more than 100 µM; in assay [4] (48 h), more than 100 µM; in assay [5], more than 100 µM; in assay [6] (48 h), more than 100 µM.

Turning to `O=S1(=O)c2ncccc2-c2nc(NCCN3CCCCC3)c3ccccc3c21` [7ae, 5-((2-(Piperidin-1-yl)ethyl)amino)pyrido[3′,2′:4,5] thieno[3,2-c]isoquinoline 11,11-dioxide], the IC50 in assay [1] (Homo sapiens, CAL-27, 48 h) is 7.96 ± 2.24 µM; in assay [2] (Homo sapiens, A549, 48 h), more than 100 µM; in assay [3] (Homo sapiens, MGC-803, 48 h), 14.2 ± 2.46 µM; in assay [4] (Homo sapiens, NCI-H460, 48 h) it was 16.9 ± 0.78 µM; in assay [5] (Homo sapiens, ACHN), 61.7 ± 4.9 µM; in assay [6] (SV-HUC1, 48 h), 15.2 ± 2.43 µM.

In the case of `O=S1(=O)c2ncccc2-c2nc(NCCCN3CCOCC3)c3ccccc3c21` [7ai, 5-((3-Morpholinopropyl)amino)pyrido[3′,2′:4,5] thieno[3,2-c]isoquinoline 11,11-dioxide], the IC50 in assay [1] (Homo sapiens, CAL-27, 48 h) was more than 100 µM; in assay [2] (Homo sapiens, A549, 48 h), more than 100 µM; in assay [3] (Homo sapiens, MGC-803, 48 h) it was more than 100 µM; in assay [4] (Homo sapiens, NCI-H460, 48 h), more than 100 µM; in assay [5] (Homo sapiens, ACHN), more than 100 µM; in assay [6] (SV-HUC1, 48 h), more than 100 µM.

As for `CCN(CC)CCNc1nc2c(c3ccccc13)S(=O)(=O)c1nc(-c3ccccc3)cc(C)c1-2` [7cb, 5-((2-(Diethylamino)ethyl)amino)-7-methyl-9-phenylpyrido[3′,2′:4,5]thieno[3,2-c]isoquinoline 11,11-dioxide], the half-maximal inhibitory concentration (IC50) in assay [1] (48 h) was 20.3 ± 2.34 µM; in assay [2] (48 h), 37.39 ± 0.21 µM; in assay [3] (48 h) it was more than 100 µM; in assay [4] (48 h), more than 100 µM; in assay [5] it was more than 100 µM; in assay [6] (48 h), more than 100 µM.

Take `CN(C)CCNc1nc2c(c3ccccc13)S(=O)(=O)c1ncccc1-2` [7aa, 5-((2-(Dimethylamino)ethyl)amino)pyrido[3′,2′:4,5] thieno[3,2-c]isoquinoline 11,11-dioxide]: the IC50 in assay [1] (Homo sapiens, CAL-27, 48 h) is 14.4 ± 4.75 µM; in assay [2] (Homo sapiens, A549, 48 h), more than 100 µM; in assay [3] (Homo sapiens, MGC-803, 48 h), 21.6 ± 0.64 µM; in assay [4] (Homo sapiens, NCI-H460, 48 h) it was 59 ± 3.81 µM; in assay [5] (Homo sapiens, ACHN), 20.5 ± 4.82 µM; in assay [6] (SV-HUC1, 48 h), 20.8 ± 3.83 µM.

Regarding `CCN(CC)CCNc1nc2c(c3ccccc13)S(=O)(=O)c1ncccc1-2` [7ab, 5-((2-(Diethylamino)ethyl)amino)pyrido[3′,2′:4,5] thieno[3,2-c]isoquinoline 11,11-dioxide], the IC50 in assay [1] (Homo sapiens, CAL-27, 48 h) is 23.8 ± 1.08 µM; in assay [2] (Homo sapiens, A549, 48 h), 42.6 ± 1.89 µM; in assay [3] (Homo sapiens, MGC-803, 48 h), 47 ± 2.43 µM; in assay [4] (Homo sapiens, NCI-H460, 48 h), 59.7 ± 9.65 µM; in assay [5] (Homo sapiens, ACHN) it was more than 100 µM; in assay [6] (SV-HUC1, 48 h), 21.6 ± 3.19 µM.

For the compound `Cc1cc(-c2ccccc2)nc2c1-c1nc(NCCCn3ccnc3)c3ccccc3c1S2(=O)=O` [7cj, 5-((3-(1H-imidazol-1-yl)propyl)amino)-7-methyl-9-phenylpyrido[3′,2′:4,5]thieno[3,2-c]isoquinoline 11,11-dioxide], the concentration for half-maximal inhibition (IC50) in assay [1] (48 h), in assay [2] (48 h), in assay [3] (48 h), in assay [4] (48 h), in assay [5] and in assay [6] (48 h) was more than 100 µM in each case.

For the compound `O=S1(=O)c2ncccc2-c2nc(NCCCn3ccnc3)c3ccccc3c21` [7aj, 5-((3-(1H-Imidazol-1-yl)propyl)amino)pyrido[3′,2′:4,5]thieno[3,2-c]isoquinoline 11,11-dioxide], the IC50 is more than 100 µM in assay [1] (Homo sapiens, CAL-27, 48 h); more than 100 µM in assay [2] (Homo sapiens, A549, 48 h); more than 100 µM in assay [3] (Homo sapiens, MGC-803, 48 h); more than 100 µM in assay [4] (Homo sapiens, NCI-H460, 48 h); more than 100 µM in assay [5] (Homo sapiens, ACHN); more than 100 µM in assay [6] (SV-HUC1, 48 h).

For `Cc1cc(-c2ccccc2)nc2c1-c1nc(NCCN3CCCC3)c3ccccc3c1S2(=O)=O` [7cc, 7-Methyl-9-phenyl-5-((2-(pyrrolidin-1-yl)ethyl)amino)pyrido[3′,2′:4,5]thieno[3,2-c]isoquinoline 11,11-dioxide], the IC50 in assay [1] (48 h), in assay [2] (48 h), in assay [3] (48 h), in assay [4] (48 h), in assay [5] and in assay [6] (48 h) was more than 100 µM in each case.

Consider `Cc1cc(-c2ccccc2)nc2c1-c1nc(NCCN(C)C)c3ccccc3c1S2(=O)=O` [7ca, 5-((2-(Dimethylamino)ethyl)amino)-7-methyl-9-phenylpyrido[3′,2′:4,5]-thieno[3,2-c]isoquinoline 11,11-dioxide], for which the IC50 in assay [1] (48 h) is more than 100 µM; in assay [2] (48 h), more than 100 µM; in assay [3] (48 h), 53.1 ± 3.78 µM; in assay [4] (48 h), more than 100 µM; in assay [5], more than 100 µM; in assay [6] (48 h) it was more than 100 µM.

Turning to `Cc1cc(C)c2c(n1)S(=O)(=O)c1c-2nc(NCCCn2ccnc2)c2ccccc12` [7bj, 5-((3-(1H-Imidazol-1-yl)propyl)amino)-7,9-dimethylpyrido[3′,2′:4,5]thieno[3,2-c]isoquinoline 11,11-dioxide], the IC50 is more than 100 µM in assay [1] (Homo sapiens, CAL-27, 48 h); more than 100 µM in assay [2] (Homo sapiens, A549, 48 h); more than 100 µM in assay [3] (Homo sapiens, MGC-803, 48 h); more than 100 µM in assay [4] (Homo sapiens, NCI-H460, 48 h); more than 100 µM in assay [5] (Homo sapiens, ACHN); more than 100 µM in assay [6] (SV-HUC1, 48 h).

Regarding `Cc1cc(-c2ccccc2)nc2c1-c1nc(NCCN3CCCCC3)c3ccccc3c1S2(=O)=O` [7ce, 7-Methyl-9-phenyl-5-((2-(piperidin-1-yl)ethyl)-amino)pyrido[3′,2′:4,5]thieno[3,2-c]isoquinoline 11,11-dioxide], the half-maximal inhibitory concentration (IC50) in assay [1] (48 h) was 56.8 ± 2.59 µM; in assay [2] (48 h), 86.5 ± 3.15 µM; in assay [3] (48 h), 94 ± 2.15 µM; in assay [4] (48 h) it was 93 ± 8.03 µM; in assay [5] it was more than 100 µM; in assay [6] (48 h), more than 100 µM.

As for `Cc1cc(-c2ccccc2)nc2c1-c1nc(NCCCN3CCOCC3)c3ccccc3c1S2(=O)=O` [7ci, 7-Methyl-5-((3-morpholinopropyl)amino)-9-phenylpyrido[3′,2′:4,5]thieno[3,2-c]isoquinoline 11,11-dioxide], the half-inhibitory concentration (IC50) in assay [1] (48 h), in assay [2] (48 h), in assay [3] (48 h), in assay [4] (48 h), in assay [5] and in assay [6] (48 h) was more than 100 µM each time.

On to `CC[C@@]1(O)C(=O)OCc2c1cc1n(c2=O)Cc2cc3c(CN(C)C)c(O)ccc3nc2-1` [TPT, topotecan, reference compound], for which the IC50 in assay [1] (Homo sapiens, CAL-27, 48 h) is 2.33 ± 0.12 µM; in assay [2] (Homo sapiens, A549, 48 h), 3.84 ± 0.56 µM; in assay [3] (Homo sapiens, MGC-803, 48 h), 6.36 ± 1.09 µM; in assay [4] (Homo sapiens, NCI-H460, 48 h), 21.4 ± 1.33 µM; in assay [5] (Homo sapiens, ACHN) it was 4.32 ± 0.63 µM; in assay [6] (SV-HUC1, 48 h), 30.8 ± 1.58 µM.

Consider `O=S1(=O)c2ncccc2-c2nc(NCCN3CCOCC3)c3ccccc3c21` [7ad, 5-((2-Morpholinoethyl)amino)pyrido[3′,2′:4,5]thieno[3,2-c]isoquino-line 11,11-dioxide], for which the IC50 was more than 100 µM in assay [1] (Homo sapiens, CAL-27, 48 h); more than 100 µM in assay [2] (Homo sapiens, A549, 48 h); more than 100 µM in assay [3] (Homo sapiens, MGC-803, 48 h); more than 100 µM in assay [4] (Homo sapiens, NCI-H460, 48 h); more than 100 µM in assay [5] (Homo sapiens, ACHN); more than 100 µM in assay [6] (SV-HUC1, 48 h).
